From patent US8802635B2, “Antioxidant, anti-inflammatory, anti-radiation, metal chelating compounds and uses thereof” (Oneday—Biotech And Pharma Ltd., priority 2011, dated 2014)
Non-standard residues stand in square brackets, D forms with d. βAla = NCCC(=O)O

Legend:
IkappaBalpha = test: Cytoplasmic stability of I-kappaBalpha in lung, zymosan-induced inflammation; format: in vivo, mice; conditions: lung tissue, 24 hours after zymosan
Description: Male BALB/c mice were randomly allocated into the following experimental groups:
The peptides were administered by an intraperitoneal (i.p.) route of administration as described in Example 3.
The peptides were formulated in D5W as described in Example 3. The vehicle control was D5W.
At 24 hours after administration of zymosan, animals were euthanized and assessed for inflammation by an NF-κB analysis of lung tissue.
Tissues were homogenized and nuclear extracts prepared via centrifugation. ELISA for IkappaBalpha was performed, using a series of standards in order to define absolute concentrations.

[1] = system: cellularity of the peritoneal exudates; test: Ovalbumin-induced hypersensitivity (allergic peritonitis): peritoneal cellularity; format: in vivo, mice; conditions: 125 mg/kg i.p. on days 13, 14, 15
Description: (§1) Male BALB/c mice (6-8 weeks old) were housed under specific pathogen-free conditions and maintained on a 12-hour light/dark cycle, with food and water ad libitum. All materials and drugs were obtained from Sigma, Inc.
(§2) Mice in Groups A, B, C, and E (n=10 per group) were sensitized with intraperitoneal (i.p.) 200 μl of sterile PBS containing 100 μg ovalbumin (OVA) and 1.6 mg alum on days 0 and 7, and challenged with intraperitoneal (i.p.) 200 μl of sterile PBS containing 10 μg ovalbumin (OVA) on day 14 in order to induce an experimental model of allergic peritonitis. Mice in Group F (n=10) were injected with intraperitoneal (i.p) 200 μl sterile PBS (“sham” group, no OVA and no Alum).
(§3) Mice in Groups A, B, and C, were treated with 150 μl of sterile PBS containing peptides DY-66, DY-65 and DY-70, respectively, at a dose of 125 mg/kg on days 13, 14, and 15 via an i.p. route of administration.
(§4) Mice in Groups E and F were treated with 150 μl of sterile PBS on days 13, 14, and 15 via an i.p. route of administration. On day 14 the test articles (or PBS vehicle) were injected 30 minutes before injecting the OVA.

HaCaT cells = test: Hydrogen peroxide-induced HaCaT keratinocyte cytotoxicity (MTT); format: cell-based; conditions: 90 μM hydrogen peroxide 30 min; MTT after 72 hours
Description: All five peptides were examined in this Example, and their activity was compared to the known CB3 peptide. HaCaT cells were seeded in 96-well plate at a concentration of 10×10^4 cells/ml for 24 hours. Then cells were incubated with the peptides at the indicated concentrations for 2.5 hours followed by washing with PBS and incubation with 90 μM hydrogen peroxide (without peptide) for 30 minutes. Cells were washed with PBS and incubated with culture medium containing peptide for 72 hours. Cell viability was tested by MTT. The effect of the peptides on cell viability was performed similarly without hydrogen peroxide exposure.

[2] = Metal chelation: copper binding by mass spectra (ESI); conditions: 0.83 mM peptide, 1.66 mM CuSO4, 1 hour room temperature
Description: All five peptides were examined for their ability to bind copper and ferric ions. 0.83 mM of each peptide were mixed with 1.66 mM of either FeCL3 or CuSO4. The mixtures were incubated for 1 hour at room temperature and further kept at ° 4 C until analysis. Samples were analyzed by mass spectra (ESI).

[3] = system: JNK (c-Jun N-terminal kinases); test: Inhibition of oxidative stress (auranofin)-induced JNK phosphorylation in SH-SY5Y cells; format: cell-based, Human; conditions: auranofin 5 μM
Description: (§5) Human neuroblastoma SH-SY5Y cells were maintained in Dulbecco's modified Eagle's medium (DMEM, Invitrogen) supplemented with 10% fetal bovine serum (Invitrogen), 100 μg/ml streptomycin and 100 U/ml penicillin G (Gibco). Cells were plated at a density of 6.25×10^4/cm^2 and incubated for 24 hours, after which they were exposed to different treatments.
(§6) SH-SY5Y cells were plated on 96-well plates and treated with Auranofin (AuF) (5 μM) for 30 min. Then the cells were washed with PBS and treated with either one of the peptides at the indicated concentrations. Twenty-four hours later, the cells were fixed with glutaraldehyde in final concentration of 0.5% for 10 min. Cells were washed 3 times with DDW dried over night, and washed once with borate buffer (0.1M, pH 8.5). The fixed cells were stained with 200 μl of 1% methylene blue dissolved in borate buffer for 1 hour. After extensive washing and drying, the color was extracted with 200 μl of 0.1 M HCl for 1 h at 37° C. and absorbance was read in spectrophotometer at 630 nm.
(§7) Twenty to thirty micrograms of protein samples were loaded on 10-12% SDS-PAGE gels. The proteins were then transferred electrophoretically to nitrocellulose (Whatman, Germany). The blots were blocked by incubation for 1 h at room temperature (RT) in TBS-T (25 mM Tris-HCl pH 7.4, 0.9% NaCl and 0.02% Tween-20) with 4% Difco skim milk (BD, USA), and incubated over-night at 4° C. with the primary antibody: pERK1/2 (Thr 202/Tyr204), mouse mAb, (1:6,000); p-SAPK/JNK (Thr183/Tyr185), rabbit mAb; SAPK/JNK, mouse mAb; p-p38MAP Kinase (Thr180/Tyr182), rabbit mAb; cleaved caspase 3, rabbit mAb. All antibodies were from Cell Signaling Tech. USA, used at 1:1000. Purified b Catenin, mouse mAb, (1:10,000; BD Transduction Laboratories, USA) diluted in 5% BSA, 0.04% Azide in TBS-T. Proteins were detected with Anti-Mouse or Anti-Rabbit IgG-HRP linked antibody (1:10,000; Cell Signaling, Tech. USA).

anti-OVA serum IgE = test: Ovalbumin-induced hypersensitivity: serum anti-OVA IgE; format: in vivo, mice; conditions: for effect on OVA-induced elevation of anti-OVA serum IgE titer (in words) / rank order of reduction of anti-OVA serum IgE titer: 125 mg/kg i.p. on days 13, 14, 15, blood day 16
Description: as §1, §2, §3, §4
Blood taken on day 16 was tested for 1) serum anti-OVA IgE, 2) white blood cell count and differential (including absolute and percentage of eosinophils count). Serum was frozen at −80° C. for future optional blood tests.

[4] = system: carrageenan-induced hind paw swelling; test: Carrageenan-induced hind paw swelling; format: in vivo, mice; conditions: 150 mg/kg i.p. 30 min prior to carrageenan; for swelling reduction compared to control: control saline only
Description: The above new five peptides were examined for anti-inflammatory activity, and their activity was compared to that of peptide CB3. Male ICR mice received an i.p. administration of each of the tested peptide (150 mg/kg) 30 min prior to the injection of carrageenan into the sub-plantar area of both of the animal's hind paws. Carrageenan was dissolved in water at concentration of 3 mg/ml and injected at a volume of 50 μl. Hind paw thickness was measured by Mitutoyo® micrometer before carrageenan injection and afterward at intervals of 1 hour between each measurement. Swelling was calculated as the difference between the thickness of the hind paw measured at each time interval and its size at time 0 (before carrageenan injection). n=6 foot pads (3 animals) for each group.

p38 MAP Kinase = test: Inhibition of oxidative stress (auranofin)-induced p38 phosphorylation in SH-SY5Y cells; format: cell-based, Human; conditions: auranofin 5 μM
Description: as §5, §6, §7

## N-acetyl-Cys-Lys-Met-Cys-NH2 (Ac-CKMC-NH2; cysteine pairing not given here) [DY-65]
IkappaBalpha
  rank order of efficacy on cytoplasmic IkappaBalpha: DY-70>DY-65>DY-66
[1]
  effect on OVA-induced elevation of peritoneal exudate cellularity (in words): significantly reduced the elevation
  rank order of reduction of peritoneal exudate cellularity: DY-65>DY-70>DY-66
HaCaT cells
  protection of cell viability after hydrogen peroxide exposure (in words): slightly elevated cell viability
[2]
  copper binding (in words): binding was observed
[3]
  IC50: 32.3 µM
anti-OVA serum IgE
  effect on OVA-induced elevation of anti-OVA serum IgE titer (in words): significantly reduced the elevation
  rank order of reduction of anti-OVA serum IgE titer: DY-65>DY-70>DY-66
anti-OVA serum IgE; 125 mg/kg i.p., % of the OVA-induced elevation
  greatest reduction of the OVA-induced elevation of anti-OVA serum IgE: ca. 60%
[4]; after 1 hour
  swelling reduction compared to control: 40%
[4]; after 2 hours
  swelling reduction compared to control: 27%
[4]; after 3 hours
  swelling reduction compared to control: 34%
p38 MAP Kinase
  IC50: 36.7 µM

## N-acetyl-Cys-βAla-His-Cys-NH2 (Ac-C[βAla]HC-NH2; cysteine pairing not given here) [DY-66]
IkappaBalpha
  rank order of efficacy on cytoplasmic IkappaBalpha: DY-70>DY-65>DY-66
[1]
  effect on OVA-induced elevation of peritoneal exudate cellularity (in words): significantly reduced the elevation
  rank order of reduction of peritoneal exudate cellularity: DY-65>DY-70>DY-66
HaCaT cells
  protection of cell viability after hydrogen peroxide exposure (in words): slightly elevated cell viability
[2]
  copper binding (in words): low degree
[3]
  IC50: 86.9 µM
anti-OVA serum IgE
  effect on OVA-induced elevation of anti-OVA serum IgE titer (in words): significantly reduced the elevation
  rank order of reduction of anti-OVA serum IgE titer: DY-65>DY-70>DY-66
[4]
  hind paw swelling compared to control (in words): Reduced swelling compared to control
p38 MAP Kinase
  IC50: 67 µM
